# Test results as given in ChEMBL document CHEMBL5252531, “2015 Philip S. Portoghese Medicinal Chemistry Lectureship. Curing Hepatitis C Virus Infection with Direct-Acting Antiviral Agents: The Arc of a Medicinal Chemistry Triumph” (J Med Chem, 2016).
# Square brackets hold non-standard residues; d marks the D form. Peptide text beside a SMILES is read from it. Dip = N[C@H](C(=O)O)C(c1ccccc1)c1ccccc1; Abu(4,4-F2) = N[C@@H](CC(F)F)C(=O)O; Cha = N[C@@H](CC1CCCCC1)C(=O)O
# How the values were obtained:
# [1] = Binding affinity to Hepatitis C virus NS3 protease (1027 to 1206 residues) expressed in Escherichia coli assessed as inhibition constant; design: species or system Hepacivirus hominis
# [2] = Binding affinity to Hepatitis C virus NS3 assessed as inhibition constant; design: species or system Hepacivirus hominis
# [3] = target: T1, Hepatitis C virus serine protease, NS3/NS4A (Hepatitis C virus, UniProt A3EZI9+D2K2A8); assay: Inhibition of Hepatitis C virus NS3/NS4A protease; format: protein-complex assay, Hepacivirus hominis
# Hepatitis C virus [4] = assay: Inhibition of HCV genotype 2a; format: functional, organism-based, Hepacivirus hominis
# Hepatitis C virus [5] = assay: Antiviral activity against Hepatitis C virus infected RNA assessed as reduction in viral replication at 600 mg, po BID measured for 3 days; format: functional, Hepacivirus hominis; settings: time 3 day
# in vivo [6] = settings: cynomolgus monkey, po, 3 mg/kg
# [7] = AUC in Beagle dog at 3 mg/kg, po measured after 24 hrs by LC-MS/MS analysis; format: ADME, organism-based, Canis lupus familiaris; design: dose 3 mg/kg, time 24 hrs, route po; settings: in vivo
# Hepatitis C virus [8] = assay: Inhibition of HCV genotype 1b; format: functional, organism-based, Hepacivirus hominis
# in vivo [9] = settings: FVB, mouse, po, 5 mg/kg
# Hepatitis C virus [10] = assay: Inhibition of HCV genotype 3a; format: functional, organism-based, Hepacivirus hominis
# in vivo [11] = settings: male, Sprague-Dawley, rat, po, 15 mg/kg
# [12] = Drug concentration in Beagle dog liver at 6 mg/kg, po measured after 24 hrs by LC-MS/MS analysis; format: ADME, organism-based, Canis lupus familiaris; settings: read-out: Ct
# in vivo [13] = settings: Sprague-Dawley, rat, iv, 5 mg/kg
# Description: Half life in Sprague-Dawley rat at 5 mg/kg, iv measured after 24 hrs by HPLC method
# [14] = AUC in Sprague-Dawley rat at 15 mg/kg, po measured after 24 hrs by LC-MS/MS analysis; format: ADME, organism-based; design: dose 15 mg/kg, time 24 hrs, route po; settings: in vivo
# [15] = Drug concentration in cynomolgus monkey liver at 10 mg/kg, po measured after 24 hrs by LC-MS/MS analysis; format: ADME, organism-based, Macaca fascicularis; settings: read-out: Ct
# Hepatitis C virus [16] = assay: Antiviral activity against Hepatitis C virus infected RNA assessed as reduction in viral replication at 400 mg, po BID measured for 3 days; format: functional, Hepacivirus hominis; settings: time 3 day
# in vivo [17] = settings: beagle, dog, iv, 1 mg/kg
# Description: Half life in Beagle dog at 1 mg/kg, iv measured after 24 hrs by HPLC method
# Hepatitis C virus [18] = assay: Antiviral activity against HCV genotype 2a; format: functional, organism-based, Hepacivirus hominis
# Hepatitis C virus [19] = assay: Antiviral activity against HCV genotype 1b; format: functional, organism-based, Hepacivirus hominis
# in vivo [20] = settings: cynomolgus monkey, iv, 1 mg/kg
# Description: Half life in cynomolgus monkey at 1 mg/kg, iv measured after 24 hrs by HPLC method
# [21] = Drug concentration in Beagle dog plasma at 6 mg/kg, po measured after 24 hrs by LC-MS/MS analysis; format: ADME, organism-based, Canis lupus familiaris
# Hepatitis C virus [22] = assay: Inhibition of HCV genotype 6a; format: functional, organism-based, Hepacivirus hominis
# [23] = Drug concentration in Sprague-Dawley rat plasma at 15 mg/kg, po measured after 24 hrs by LC-MS/MS analysis; format: ADME, organism-based
# [24] = Drug concentration in FVB mouse liver at 5 mg/kg, po measured after 24 hrs by LC-MS/MS analysis; format: ADME, organism-based; settings: read-out: Ct
# [25] = AUC in cynomolgus monkey at 3mg/kg, po measured after 24 hrs by LC-MS/MS analysis; format: ADME, organism-based, Macaca fascicularis; design: time 24 hrs, route po; settings: in vivo
# Hepatitis C virus [26] = assay: Antiviral activity against HCV genotype 3a; format: functional, organism-based, Hepacivirus hominis
# Hepatitis C virus [27] = assay: Inhibition of HCV genotype 1a; format: functional, organism-based, Hepacivirus hominis
# [28] = AUC in FVB mouse at 5 mg/kg, po measured after 24 hrs by LC-MS/MS analysis; format: ADME, organism-based; design: dose 5 mg/kg, time 24 hrs, route po; settings: in vivo
# [29] = Drug concentration in Sprague-Dawley liver at 15 mg/kg, po measured after 24 hrs by LC-MS/MS analysis; format: ADME, organism-based; settings: rat, read-out: Ct
# Hepatitis C virus [30] = assay: Inhibition of HCV genotype 2b; format: functional, organism-based, Hepacivirus hominis
# Hepatitis C virus [31] = assay: Inhibition of HCV genotype 5a; format: functional, organism-based, Hepacivirus hominis
# Hepatitis C virus [32] = assay: Antiviral activity against HCV genotype 4a; format: functional, organism-based, Hepacivirus hominis
# Hepatitis C virus [33] = assay: Antiviral activity against Hepatitis C virus infected RNA assessed as reduction in viral replication at 200 mg, po BID measured for 3 days; format: functional, Hepacivirus hominis; settings: time 3 day
# Hepatitis C virus [34] = assay: Inhibition of HCV genotype 4a; format: functional, organism-based, Hepacivirus hominis
# in vivo [35] = settings: FVB, mouse, iv, 2 mg/kg
# Description: Half life in FVB mouse at 2 mg/kg, iv measured after 24 hrs by HPLC method
# [36] = target: RNA-directed RNA polymerase (Hepacivirus hominis, UniProt O39930); assay: Inhibition of Hepatitis C virus NS5B polymerase
# Hepatitis C virus [37] = assay: Antiviral activity against HCV GT1b-genotype assessed as viral growth inhibition measured after 24 hrs; format: functional, organism-based, Hepacivirus hominis; settings: Hepatitis C virus, GT1b-genotype, 24 h
# Hepatitis C virus [38] = assay: Antiviral activity against HCV GT1a-genotype assessed as inhibition of viral replication; format: functional, organism-based, Hepacivirus hominis
# [39] = system: Bovine viral diarrhea virus 1; assay: Antiviral activity against Bovine viral diarrhea virus 1; format: functional, organism-based; settings: Bovine viral diarrhea virus isolates and strains
# Hepatitis C virus [40] = assay: Antiviral activity against HCV GT1b-genotype assessed as inhibition of viral replication; format: functional, organism-based, Hepacivirus hominis
# Human rhinovirus sp. = assay: Antiviral activity against HRV; format: functional, organism-based
# [41] = system: Respiratory syncytial virus; assay: Antiviral activity against RSV; format: functional, organism-based; settings: human respiratory syncytial virus
# [42] = system: Bovine viral diarrhea virus 1; assay: Antiviral activity against Bovine viral diarrhea virus 1 infected in MDBK cells assessed as reduction in viral replication; format: functional, organism-based; settings: Bovine viral diarrhea virus isolates and strains
# [43] = Cytotoxicity against human MT2 cells assessed as cell viability measured after 72 hrs by MTT assay; format: toxicity, cell-based
# [44] = system: Human immunodeficiency virus 1; assay: Antiviral activity against HIV-1; format: functional, organism-based
# Huh-7 = assay: Cytotoxicity against human Huh-7 cells assessed as reduction in cell viability […] after 72 hrs by alamar blue assay; format: functional
# [45] = Cytotoxicity against African green monkey Vero cells assessed as reduction in cell viability […] after 72 hrs by alamar blue assay; format: toxicity, cell-based; settings: chlorocebus sabaeus
# HeLa = assay: Cytotoxicity against human HeLa cells assessed as reduction in cell viability measured after 72 hrs by Alamar blue assay; format: functional
# [46] = Cytotoxicity against human HEK293 cells assessed as reduction in cell viability […] after 72 hrs by alamar blue assay; format: toxicity, cell-based
# [47] = Cytotoxicity against human MRC5 cells assessed as reduction in cell viability measured after 72 hrs by alamar blue assay; format: toxicity, cell-based
# [48] = Oral bioavailability in rat plasma; format: ADME, organism-based; settings: in vivo
# [49] = target: T1, Hepatitis C virus serine protease, NS3/NS4A; assay: Inhibition of C-terminal HCV NS4A-NS3 protease; format: protein-complex assay, Hepacivirus hominis
# Hepatitis C virus [50] = assay: Antiviral activity against Hepatitis C virus; format: functional, organism-based, Hepacivirus hominis
# [51] = target: T1, Hepatitis C virus serine protease, NS3/NS4A; assay: Inhibition of HCV NS4A-NS3 protease; format: protein-complex assay, Hepacivirus hominis
# Hepatitis C virus [52] = assay: Antiviral activity against HCV genotype 1a; format: functional, organism-based, Hepacivirus hominis
# Hepatitis C virus [53] = assay: Antiviral activity against HCV genotype 1b Tyr93His mutant; settings: Hepacivirus hominis
# [54] = Half life in dog liver microsomes; format: ADME, Canis lupus familiaris, Microsome
# Hepatitis C virus [55] = assay: Antiviral activity against HCV genotype 1b harboring NS5A Y93H mutant; format: functional, organism-based, Hepacivirus hominis
# T1 sequence (D2K2A8 whole entry): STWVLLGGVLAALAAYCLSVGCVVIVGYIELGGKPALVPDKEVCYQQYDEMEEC
# T1 sequence (A3EZI9 whole entry): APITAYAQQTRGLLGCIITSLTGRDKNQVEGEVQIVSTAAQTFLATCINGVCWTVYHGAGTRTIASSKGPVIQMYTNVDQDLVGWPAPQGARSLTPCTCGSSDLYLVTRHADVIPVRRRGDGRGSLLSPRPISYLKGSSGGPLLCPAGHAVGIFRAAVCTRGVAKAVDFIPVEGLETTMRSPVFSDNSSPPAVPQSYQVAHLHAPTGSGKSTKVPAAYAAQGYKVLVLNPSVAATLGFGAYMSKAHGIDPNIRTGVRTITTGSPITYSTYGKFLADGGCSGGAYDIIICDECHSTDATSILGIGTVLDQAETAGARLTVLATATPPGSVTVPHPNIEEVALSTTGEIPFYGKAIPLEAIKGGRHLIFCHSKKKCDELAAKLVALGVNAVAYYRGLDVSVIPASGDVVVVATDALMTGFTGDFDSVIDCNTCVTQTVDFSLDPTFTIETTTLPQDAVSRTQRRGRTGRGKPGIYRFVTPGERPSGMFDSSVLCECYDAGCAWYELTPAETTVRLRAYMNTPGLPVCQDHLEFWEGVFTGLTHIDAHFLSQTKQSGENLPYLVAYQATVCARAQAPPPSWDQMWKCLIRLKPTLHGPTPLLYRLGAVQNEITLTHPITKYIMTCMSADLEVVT
# Chain of RNA-directed RNA polymerase (O39930 whole entry): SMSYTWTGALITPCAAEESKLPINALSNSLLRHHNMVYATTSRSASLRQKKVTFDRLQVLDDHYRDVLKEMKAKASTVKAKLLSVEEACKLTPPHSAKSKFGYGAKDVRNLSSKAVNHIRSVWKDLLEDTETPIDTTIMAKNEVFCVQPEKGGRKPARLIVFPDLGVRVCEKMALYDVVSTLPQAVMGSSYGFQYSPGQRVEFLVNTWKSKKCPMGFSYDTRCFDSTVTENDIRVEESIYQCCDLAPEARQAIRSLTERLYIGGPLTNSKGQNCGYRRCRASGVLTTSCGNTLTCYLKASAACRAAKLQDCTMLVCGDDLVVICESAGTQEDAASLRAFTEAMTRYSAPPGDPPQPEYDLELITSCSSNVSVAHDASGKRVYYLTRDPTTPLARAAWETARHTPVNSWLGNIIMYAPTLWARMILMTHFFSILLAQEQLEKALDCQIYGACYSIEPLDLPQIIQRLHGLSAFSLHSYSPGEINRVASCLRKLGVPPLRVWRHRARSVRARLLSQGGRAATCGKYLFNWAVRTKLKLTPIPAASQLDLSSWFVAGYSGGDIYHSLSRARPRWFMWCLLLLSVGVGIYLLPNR
smiles,measurement,setting,value
CC(C)C[C@H](NC(=O)[C@H](CCC(=O)O)NC(=O)OC(C)(C)C)C(=O)NC(CC(F)F)C(=O)C(=O)O (some centres undefined),Ki,[1],27 nM
same,Ki,[2],17000 nM
"CC(=O)N[C@@H](CC(=O)O)C(=O)N[C@@H](CCC(=O)O)C(=O)N[C@H](C(=O)N[C@@H](CCC(=O)O)C(=O)N[C@@H](CC1CCCCC1)C(=O)N[C@@H](CC(F)F)C(=O)O)C(c1ccccc1)c1ccccc1 (Ac-DE[Dip]E[Cha][Abu(4,4-F2)]-OH)",Ki,[3],3 nM
C=C[C@@H]1C[C@]1(NC(=O)[C@@H]1C[C@@H](Oc2ncc(OC)c3ccc(Cl)cc23)CN1C(=O)[C@@H](NC(=O)OC(C)(C)C)C(C)(C)C)C(=O)NS(=O)(=O)C1CC1,IC50,Hepatitis C virus [4],15 nM
same,Activity,Hepatitis C virus [5],2.84 log10 IU/mL
same,bioavailability,in vivo [6],11%
same,AUC at 24 h,[7],2.2 µM·h
same,IC50,Hepatitis C virus [8],0.3 nM
same,bioavailability,in vivo [9],28%
same,IC50,Hepatitis C virus [10],320 nM
same,bioavailability,in vivo [11],14%
same,concentration at 24 h,[12],2500 nM
same,half-life at 24 h,in vivo [13],4.2 h
same,AUC at 24 h,[14],1 µM·h
same,concentration at 24 h,[15],440 nM
same,Activity,Hepatitis C virus [16],3.57 log10 IU/mL
same,half-life at 24 h,in vivo [17],1 h
same,EC50,Hepatitis C virus [18],230 nM
same,EC50,Hepatitis C virus [19],1.2 nM
same,half-life at 24 h,in vivo [20],1.3 h
same,concentration at 24 h,[21],6 nM
same,IC50,Hepatitis C virus [22],0.9 nM
same,concentration at 24 h,[23],40 nM
same,concentration at 24 h,[24],710 nM
same,AUC at 24 h,[25],0.41 µM·h
same,EC50,Hepatitis C virus [26],1160 nM
same,IC50,Hepatitis C virus [27],0.7 nM
same,AUC at 24 h,[28],0.54 µM·h
same,concentration at 24 h,[29],1200 nM
same,IC50,Hepatitis C virus [30],78 nM
same,IC50,Hepatitis C virus [31],1.7 nM
same,EC50,Hepatitis C virus [32],1.8 nM
same,Activity,Hepatitis C virus [33],3.09 log10 IU/mL
same,IC50,Hepatitis C virus [34],1.6 nM
same,half-life at 24 h,in vivo [35],4.6 h
Cn1c(-c2ccccc2)c(C2CCCCC2)c2ccc(C(=O)O)cc21,IC50,[36],120 nM
O=C(O)c1ccc2c(C3CCCCC3)c3n(c2c1)CC(C(=O)N1CCOCC1)=Cc1ccccc1-3,EC50,Hepatitis C virus [37],359 nM
same,EC50,Hepatitis C virus [38],404 nM
C[C@H](NC(=O)OCc1ccccc1)C(=O)Nc1ccc(C2S/C(=N\c3cccc(F)c3)N(Cc3ccco3)C2=O)cc1 (some centres undefined),EC50,[39],17000 nM
same,EC50,Hepatitis C virus [40],570 nM
same,EC50,Human rhinovirus sp.,> 100000 nM
same,EC50,[41],23000 nM
same,EC50,[42],24000 nM
same,CC50 at 72 h,[43],23000 nM
same,EC50,[44],41000 nM
same,CC50,Huh-7,> 100000 nM
same,CC50 at 72 h,[45],> 150000 nM
same,CC50,HeLa,> 100000 nM
same,CC50 at 72 h,[46],> 50000 nM
same,CC50 at 72 h,[47],41000 nM
COc1ccc2c(O[C@@H]3C[C@H]4C(=O)N[C@]5(C(=O)O)C[C@H]5/C=C\CCCCC[C@H](NC(=O)OC(C)(C)C)C(=O)N4C3)cc(-c3ccccc3)nc2c1,F,[48],42%
same,IC50,[49],11 nM
same,EC50,Hepatitis C virus [50],1.2 nM
same,IC50,[51],3 nM
O=C1N[C@H]2[C@H](CS[C@H]2CCCCC(=O)N2CCC[C@H]2C(=O)Nc2ccc(/C=C/c3ccc(NC(=O)[C@@H]4CCCN4C(=O)Cc4ccccc4)cc3)cc2)N1,EC50,Hepatitis C virus [19],> 10000 nM
same,EC50,Hepatitis C virus [52],33 nM
same,EC50,Hepatitis C virus [53],> 10000 nM
O=C(Nc1ccc(/C=C/c2ccc(NC(=O)[C@@H]3CCCN3C(=O)CC3CC3)cc2)cc1)[C@@H]1CCCN1C(=O)CC1CC1,EC50,Hepatitis C virus [19],62 nM
C=C[C@@H]1C[C@]1(NC(=O)[C@@H]1C[C@@H](Oc2cc(-c3ccccc3)nc3cc(OC)ccc23)CN1C(=O)[C@@H](NC(=O)OC(C)(C)C)C(C)(C)C)C(=O)NS(=O)(=O)C1CC1,half-life,[54],2.83 h
Fc1cccc(NC(=S)NCc2ccco2)c1,EC50,Hepatitis C virus [55],0.6 nM
COC(=O)N[C@@H](C(=O)N1CCC[C@H]1c1ncc(-c2ccc(-c3ccc(-c4cnc([C@@H]5CCCN5C(=O)[C@H](NC(=O)OC)c5ccccc5)[nH]4)cc3)cc2)[nH]1)c1ccccc1,EC50,Hepatitis C virus [19],0.0067 nM
same,EC50,Hepatitis C virus [52],0.028 nM
COc1ccc2c(c1)C1CC1(C(=O)N1C3CCC1CN(C)C3)Cn1c-2c(C2CCCCC2)c2ccc(C(=O)NS(=O)(=O)N(C)C)cc21 (racemic),EC50,Hepatitis C virus [19],208 nM
same,EC50,Hepatitis C virus [52],3 nM
